Where two headings read alike, the source gives them in different places.
What was measured:
MARV VP40 (mVP40) VLPs = assay: organism not typed; type: cell-based, Marburg virus (MARV)
VSV-WT = type: cell-based, vesicular stomatitis virus (Indiana strain)
EBOV VP40 (eVP40) VLPs = type: cell-based, Ebola virus (EBOV)
LFV Z VLPs = type: cell-based, Lassa fever virus (LFV)
VSV-M40 = type: cell-based, vesicular stomatitis virus
mVP40-Nedd4 interaction = mVP40-Nedd4 interaction (Homo sapiens, UniProt P46934); type: cell-based
mVP40-Nedd4 interaction, sequence (P46934 whole entry): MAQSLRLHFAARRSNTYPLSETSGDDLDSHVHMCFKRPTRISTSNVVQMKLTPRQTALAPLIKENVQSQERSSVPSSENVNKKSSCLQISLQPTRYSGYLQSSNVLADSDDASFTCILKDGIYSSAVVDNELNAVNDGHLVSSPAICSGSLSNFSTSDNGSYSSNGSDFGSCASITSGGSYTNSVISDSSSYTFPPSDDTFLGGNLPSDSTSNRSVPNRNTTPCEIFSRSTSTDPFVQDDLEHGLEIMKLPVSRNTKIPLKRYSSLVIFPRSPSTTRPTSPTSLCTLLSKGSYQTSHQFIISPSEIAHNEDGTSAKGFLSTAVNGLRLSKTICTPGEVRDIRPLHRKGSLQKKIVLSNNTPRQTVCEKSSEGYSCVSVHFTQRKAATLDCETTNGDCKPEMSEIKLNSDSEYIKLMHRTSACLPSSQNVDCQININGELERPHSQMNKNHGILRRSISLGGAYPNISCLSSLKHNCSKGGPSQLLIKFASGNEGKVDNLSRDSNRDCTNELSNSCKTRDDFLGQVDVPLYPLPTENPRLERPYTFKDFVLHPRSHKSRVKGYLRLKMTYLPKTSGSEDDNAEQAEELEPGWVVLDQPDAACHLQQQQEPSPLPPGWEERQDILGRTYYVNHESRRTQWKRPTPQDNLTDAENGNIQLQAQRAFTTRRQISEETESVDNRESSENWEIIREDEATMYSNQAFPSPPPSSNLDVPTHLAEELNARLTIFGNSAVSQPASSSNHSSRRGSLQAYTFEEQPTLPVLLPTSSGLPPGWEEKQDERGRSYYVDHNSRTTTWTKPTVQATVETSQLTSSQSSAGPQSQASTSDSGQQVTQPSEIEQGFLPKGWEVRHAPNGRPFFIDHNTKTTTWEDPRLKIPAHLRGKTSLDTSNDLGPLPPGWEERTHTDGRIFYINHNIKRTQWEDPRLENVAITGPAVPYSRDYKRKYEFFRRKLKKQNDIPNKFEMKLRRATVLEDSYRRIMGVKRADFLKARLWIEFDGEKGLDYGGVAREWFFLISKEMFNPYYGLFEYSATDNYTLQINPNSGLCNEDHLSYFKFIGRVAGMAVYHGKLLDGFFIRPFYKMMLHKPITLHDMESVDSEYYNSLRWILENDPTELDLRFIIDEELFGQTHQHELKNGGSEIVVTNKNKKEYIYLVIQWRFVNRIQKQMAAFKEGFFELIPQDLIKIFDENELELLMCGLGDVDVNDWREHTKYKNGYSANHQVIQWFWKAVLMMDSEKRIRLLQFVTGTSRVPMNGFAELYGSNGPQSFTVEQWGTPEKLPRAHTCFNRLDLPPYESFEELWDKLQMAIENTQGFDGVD

E-BiMC (Ebola VP40) = type: cell-based

For `O=C(CN1CCCC(c2nc3ccccc3s2)C1)NC(=O)NCC(F)(F)F` (stereo not shown) [Compound 1, 2-(3-(benzo[d]thiazol-2-yl)piperidin-1-yl)-N-((2,2,2-trifluoroethyl)carbamoyl) acetamide], the “inhibition of egress of mVP40 VLPs” value (MARV VP40 (mVP40) VLPs; 20 μM) was roughly 5 fold and the “reduction of budding of VSV-WT” value (VSV-WT; 10 μM) was “approximately 5 fold”.

For `Cc1nc2ccccc2nc1SCC(=O)NC(=O)NCC(F)(F)F` [Compound 3, 2-((3-methylquinoxalin-2-yl)thio)-N-((2,2,2-trifluoroethyl)carbamoyl) acetamide], the “activity in SAR studies, MVP40 VLP budding (words, FIG. 10)” value (shortened to “activity in SAR studies”) (MARV VP40 (mVP40) VLPs) was “very effective”, the “inhibition of egress of mVP40 VLPs” value (MARV VP40 (mVP40) VLPs; 1.0 μM) was 10 fold and the “inhibition of egress of mVP40 VLPs” value (MARV VP40 (mVP40) VLPs; 10 μM) was 100 fold. For the same molecule, the “inhibition of egress of mVP40 VLPs” value (MARV VP40 (mVP40) VLPs; 20 μM) was 100 fold, the “inhibition of egress of eVP40 VLPs” value (EBOV VP40 (eVP40) VLPs; 1.0 μM) was less than 2 fold and the “inhibition of egress of eVP40 VLPs” value (EBOV VP40 (eVP40) VLPs; 10 μM) was 4.5 fold. The “inhibition of egress of eVP40 VLPs” value (EBOV VP40 (eVP40) VLPs; 20 μM) was 20 fold.

With `Cc1nc2ccccc2nc1SCC(=O)NC(=O)NC1CC1` [Compound 3g, N-(cyclopropylcarbamoyl)-2-((3-methylquinoxalin-2-yl)thio)acetamide] the “potency relative to 3 in the MVP40 budding assay” value (MARV VP40 (mVP40) VLPs) was “as or more potent than 3”.

In the case of `Cc1nc2ccccc2nc1SCC(=O)NC(=O)NCc1cccs1` [Compound 3i, 2-((3-methylquinoxalin-2-yl)thio)-N-((thiophen-2-ylmethyl)carbamoyl)acetamide], the “potency relative to 3 in the MVP40 budding assay” value (MARV VP40 (mVP40) VLPs) is reported as “as or more potent than 3”.

For `Cc1nc2ccccc2nc1SCC(=O)NC(=O)Nc1ccccc1` [Compound 5, 2-((3-methylquinoxalin-2-yl)thio)-N-(phenylcarbamoyl)acetamide], the “inhibition of egress of mVP40 VLPs” value (MARV VP40 (mVP40) VLPs; 0.1 μM) was 25 fold, the “inhibition of egress of mVP40 VLPs” value (MARV VP40 (mVP40) VLPs; 0.5 μM) was 100 fold and the “inhibition of egress of mVP40 VLPs” value (MARV VP40 (mVP40) VLPs; 1.0 μM) was 100 fold. The IC50 (MARV VP40 (mVP40) VLPs; read-out: IC50, anti-budding activity on MVP40) was less than 100 nM, the “inhibition of egress of eVP40 VLPs” value (EBOV VP40 (eVP40) VLPs; 0.1 μM) was less than 2 fold and the “inhibition of egress of eVP40 VLPs” value (EBOV VP40 (eVP40) VLPs; 0.5 μM) was 3.5 fold. The “inhibition of egress of eVP40 VLPs” value (EBOV VP40 (eVP40) VLPs; 1.0 μM) was 7 fold, the “inhibition of egress of LFV Z VLPs” value (LFV Z VLPs; 0.1 μM) was “approximately 3 fold” and the “inhibition of egress of LFV Z VLPs” value (LFV Z VLPs; 0.5 μM) was roughly 5 fold. The “inhibition of egress of VSV-WT” value (VSV-WT; 0.5 μM) was 4 fold, the “inhibition of egress of VSV-M40” value (VSV-M40; 0.1 μM) was 2 fold and the “inhibition of egress of VSV-M40” value (VSV-M40; 0.5 μM) was 6 fold.

`Cc1nn(-c2ccccc2)c(C)c1NC(=O)CN1CCCC(c2nc3ccccc3s2)C1` (stereo not shown) [Compound 4, 2-(3-(benzo[d]thiazol-2-yl)piperidin-1-yl)-N-(3,5-dimethyl-1-phenyl-1H-pyrazol-4-yl)acetamide] was tested, and the “activity in SAR studies” value (MARV VP40 (mVP40) VLPs) was “sub-micromolar”, the “budding of mVP40 VLPs reduced” value (MARV VP40 (mVP40) VLPs) was greater than 90% and the “inhibition of egress of mVP40 VLPs” value (MARV VP40 (mVP40) VLPs; 0.5 μM) was 30 fold. For the same molecule, the “inhibition of egress of mVP40 VLPs” value (MARV VP40 (mVP40) VLPs; 1.0 μM) was 100 fold, the “inhibition of egress of eVP40 VLPs” value (EBOV VP40 (eVP40) VLPs; 0.5 μM) was 3 fold and the “inhibition of egress of eVP40 VLPs” value (EBOV VP40 (eVP40) VLPs; 1.0 μM) was 10 fold. For the same molecule, the “inhibition of egress of LFV Z VLPs” value (LFV Z VLPs; 0.5 μM) was greater than 5 fold, the “PPxY-dependent budding of VSV reduced” value (VSV-WT; 0.1 μM) was “approximately 50%” and the “PPxY-dependent budding of VSV reduced” value (VSV-WT; 0.5 μM) was roughly 100%. For the same molecule, the “inhibition of egress of VSV-WT” value (VSV-WT; 0.5 μM) was “approximately 20 fold”, the “inhibition of egress of live VSV-WT” value (VSV-WT; 0.5 μM) was “more than 1 log” and the “titer of VSV-WT” value (VSV-WT; 0.5 μM) was 1.8×10^6 pfu/ml. For the same molecule, the “inhibition of egress of VSV-M40” value (VSV-M40; 0.1 μM) was “approximately 2 fold” and the “inhibition of egress of VSV-M40” value (VSV-M40; 0.5 μM) was 3 fold.

For `O=C(CN1CCCC(c2nc3ccccc3s2)C1)NCCOc1ccccc1` (stereo not shown) [Compound 2e, 2-(3-(benzo[d]thiazol-2-yl)piperidin-1-yl)-N-(2-phenoxyethyl)acetamide], the “activity in the M VP40 budding assay” value (MARV VP40 (mVP40) VLPs; 10 μM) was “active”.

`CCNC(=O)NC(=O)CSc1nc2ccccc2nc1C` [Compound 3f, N-(ethylcarbamoyl)-2-((3-methylquinoxalin-2-yl)thio)acetamide] was tested, and the “potency relative to 3 in the MVP40 budding assay” value (MARV VP40 (mVP40) VLPs) was “as or more potent than 3”.

With `Cc1n[nH]c(C)c1NC(=O)CN1CCCC(c2nc3ccccc3s2)C1` (stereo not shown) [Compound 2, 2-(3-(benzo[d]thiazol-2-yl)piperidin-1-yl)-N-(3,5-dimethyl-1H-pyrazol-4-yl) acetamide] the “inhibition of egress of Marburg (M) VP40 VLPs” value (MARV VP40 (mVP40) VLPs; 20 μM) was “nearly full inhibition”, the “inhibition of egress of mVP40 VLPs” value (MARV VP40 (mVP40) VLPs; 20 μM) was 33 fold and the “inhibition of egress of mVP40 VLPs” value (MARV VP40 (mVP40) VLPs; 40 μM) was 100 fold. For the same molecule, the “inhibition of egress of eVP40 VLPs” value (EBOV VP40 (eVP40) VLPs; 20 μM) was 2.5 fold, the “inhibition of egress of Ebola (E) VP40 VLPs” value (EBOV VP40 (eVP40) VLPs; 40 μM) was “nearly full inhibition” and the “inhibition of egress of eVP40 VLPs” value (EBOV VP40 (eVP40) VLPs; 40 μM) was 40 fold. For the same molecule, the “inhibition of budding of live wild type VSV” value (VSV-WT) was “significantly inhibited”, the “target engagement in M-BiMC assay” value (mVP40-Nedd4 interaction) was “showed target engagement” and the “target engagement in E-BiMC assay” value (E-BiMC (Ebola VP40)) was “showed target engagement”.

In the case of `Cc1n[nH]c(C)c1NC(=O)CN1CCN(c2nc3ccccc3s2)CC1` [Compound 2g, 2-(4-(benzo[d]thiazol-2-yl)piperazin-1-yl)-N-(3,5-dimethyl-1H-pyrazol-4-yl)acetamide], the “activity in SAR studies” value (MARV VP40 (mVP40) VLPs) is reported as “inactive”.

From patent publication US10160756B2 (priority 2014, dated 2018)
